Patent US20090286808A1, “Opsin Stabilizing Compounds and Methods of Use” (University of Florida Research Foundation, Inc., priority 2006, published 2009)
Entries after “also recorded” stand apart in the source; their conditions may differ. Where two headings read alike, the source gives them in different places.

Legend:
WT opsin [1] = target: T1, WT opsin (Bos taurus, UniProt P02699); test: Opsin regeneration and retinal competition: rate of 500 nm pigment formation of purified WT opsin with 11-cis-retinal; format: biochemical, bovine
Procedure: WT opsin producing cells were grown in 10 cm culture plates and induced for opsin production. After 48 hour of induction the cells were harvested and washed with PBS (10 mM sodium phosphate, 130 mM NaCl, pH 7.2). The cells were lysed in PBSD (PBS containing 1.0% DM and 1× protease inhibitor cocktail) for 1 hour and the lysate was added to 1D4 coupled sepharose beads and incubated for 1 hour at 4° C. The beads were washed 5 times in PBSD and twice with 10 mM sodium phosphate buffer containing 0.5% DM, pH 6.0. The bound WT opsin was eluted with a competing peptide representing the last 18 amino acids of rhodopsin in the latter buffer for 1 hour.
All the opsin regeneration and competition assays were performed under dim red light in a Cary 50 spectrophotometer (Varian) equipped with temperature control. 25 μM purified WT opsin was mixed with 50 μM 11-cis retinal and scanned every two minutes in the range of 250-650 nm until no more rhodopsin was regenerated. Similarly opsin was mixed with compound SN10011 (2 or 5 mM) and allowed to sit for 10 minutes on ice. […] The reactions were conducted in 100 μl total volume where the compounds were provided in 2 μl solution to 98 μl opsin solution. The temperature was maintained at 20° C.

P23H opsin [2] = target: T2, P23H opsin (Bos taurus, UniProt P02699, P23H); test: Yield of folded P23H rhodopsin purified from P23H opsin expressing HEK293 cells, by spectrophotometry; format: cell-based, bovine; conditions: for increase in the yield of folded P23H rhodopsin: P23H opsin expressing cells treated with compound, versus no compound; for yield of folded P23H rhodopsin, in words: versus absence of the compound; for % Increase in P23H Yield (Table 1): compound concentration 100 μM, compared to control; for increase in P23H pigment over control: compound present during P23H opsin expression, 48 hours, β-ionone 10 μM
T2 construct: expressed in transfected cells
Procedure: Wild-type (WT) and P23H expressing stable cell lines were generated in a commercially available cloning system, the Flp-In T-Rex System™ (Invitrogen). The stable cells were grown in DMEM high glucose media supplemented with 10% (vlv) fetal bovine serum, antibiotic antimycotic solution, […] blasticidin and hygromycin at 37° C. in presence of 5% CO2. For all the experiments the cells were allowed to reach confluence and were induced with 1 μg/ml tetracycline after change of media and then compounds were added. The plates were incubated for 48 h after which the cells were harvested.
For purification of rhodopsin 100 μM […] was added to a confluent plate of P23H cells after induction. […] Rhodopsin purification was essentially as described below for opsin purification with minor modifications. Briefly, the cells were harvested and washed with PBS followed by incubation with 50 μM 11-cis-retinal for 1.5 h at 4° C. The cells were then washed three times with PBS to remove excess retinal. Lysis, column binding and elution from the column were same as in case of opsin purification.
Stable cell lines expressing the P23H opsin were generated using Flp-In T-Rex system (Invitrogen) in HEK293 cell line. To create plasmids for constructing stable cell lines, an EcoRI-NotI fragment from the wild-type or P23H mutant synthetoc bovine opsin gene in pMT4 (see Kaushal et al., Biochemistry, Vol. 33, pp. 6121-6128 (1994) was combined with the large EcoRI-NotI fragment of pcDNA5/FRT/TO (Invitrogen). The resulting plasmids contain opsin under the control of a tetracycline-inducible human cytomegalovirus promoter and a flippase recognition sequence (FRT) for site sepecific recombination at the unique chromosomal FRT site of HEK293 Flp-In T-Rex. The opsin sequence in these plasmids was verified by PCR cycle sequencing. To construct stable cell lines, HEK293 Flp-In T-Rex cells were co-transfected with the flippase vector pOG44 (from Invitrogen) and the pcDNA5/FRT/TO vector or its derivatives containing the opsin gene. Stable recombinants were obtained by selecting for cells expressing resistance to hygromycin due to plasmid recombination at the FRT site. After the initial selection, the stable cell lines were routinely grown in the same media as HEK293 Flp-In T-rex, except that […].
The stable cells were grown in DMEM high glucose media supplemented with 10% (v/v) fetal bovine serum, antibiotic/antimycotic solution, 5 μg/ml blasticidin and hygromycin at 37° C. in presence of 5% CO2. For all the experiments the cells were allowed to reach confluence and were induced with 1 μg/mi tetracycline after change of media and then compounds were added. The plates were incubated for 48 h after which the cells were harvested.
The effect of the compounds on P23H rhodopsin yield was assessed by purifying and spectrophotormetrically determining the yield. After 48 hours of induction and treatment with compounds the cells were harvested and rhodopsin purified essentially as described in Noorwez et al. (2004). For purification of rhodopsin 100 μM NCI-45012 was added to a confluent plate of P23H cells after induction. […] Rhodopsin purification was essentially as described earlier for opsin purification with minor modifications. Briefly, the cells were harvested and washed with PBS followed by incubation with 50 μM 11-cis-retinal for 1.5 hours at 4° C., The cells were then washed three times with PBS to remove excess retinal. Lysis, column binding and elution from the column were the same as for opsin purification.
Compounds identified by computational modeling (see Example 1) were screened as described above. The effect of compounds on the yield of mutant rhodopsin was determined by spectrophotometry. […]

T17M (Class II) mice = conditions: cited from earlier work
P347S (Class I) mice = conditions: cited from earlier work
P23H opsin [3] = target: T2, P23H opsin; format: cell-based, bovine
Procedure: (§1) The P23H opsin producing cells were grown in 6-well plates and induced to produce P23H opsin. The DMSO solutions of the NCI compounds were individually added to separate wells at a final concentration of 100 μM. After incubation for 48 h cells were collected and washed with PBS. The cells were then lysed in PBSD by constantly rotating for 1 h at 4° C. The tubes were spun at 36000 rpm for […] and supernatant collected in fresh tubes. Total protein was quantified using a commercially available assay system, the DC protein assay (Biorad). Equal amounts of protein (10 μg) from different samples was loaded on 4-20% SDS polyacrylamide gels and total opsin quantified by western blotting.
as §1, with “the test” for “the NCI”, “1 hour” for “1 h”, “at 36,000” for “at 36000”, “using” for “using a commercially available assay system, the”, “blotting. Proteins were separated on SDS-PAGE gels and western blotted as described in Noorwez et at (2004).” for “blotting.”
Thus, a higher fraction of P23H molecules attain a stable conformation. […] This might also explain the difference in the degree of rescue obtained with these two pharmacological chaperones.

P23H opsin [4] = target: T2, P23H opsin; test: Yield of folded P23H rhodopsin purified from P23H opsin expressing HEK293 cells, by spectrophotometry; format: cell-based, bovine; conditions: 48 h, no 11-cis-retinal
WT opsin [5] = target: T1, WT opsin; format: biochemical, bovine; conditions: compound without 11-cis-retinal chromophore, in vitro
Procedure: The cells were washed after 48 h and rhodopsin purified without treating the cells with 11-cis-retinal under conditions that yield only folded rhodopsin (Noorwez et al. (2004)).

[6] = in the presence of 11-cis-retinal

C[C@@H]1CCC[C@H](C)C1 [cis-1,3-dimethylcyclohexane]
inhibition of opsin regeneration (pigment formation with 11-cis-retinal), in words (WT opsin [1]): much weaker inhibitor of opsin regeneration | increase in the yield of folded P23H rhodopsin (P23H opsin [2]): 15% | yield of folded P23H rhodopsin, in words (P23H opsin [2]): increased yield of folded P23H rhodopsin

Nn1nnc2ccccc21 [NSC 114498, 1H-1,2,3-benzotriazol-1-amine]
% Increase in P23H Yield (Table 2) (P23H opsin [2]): 30 ± 6%

N#Cc1cn(Cc2ccco2)c(=O)[nH]c1=O [Compound 2, 1-furan-2-ylmethyl-2,4-dioxo-1,2,3,4-tetrahydro-pyrimidine-5-carbonitrile]
% Increase in P23H Yield (Table 2) (P23H opsin [2]): 40 ± 7% | % Increase in P23H Yield (Table 1) (P23H opsin [2]): 43%

Cc1cc([N+](=O)[O-])ccn1 [Compound 4, 2-methyl-4-nitro-pyridine]
% Increase in P23H Yield (Table 2) (P23H opsin [2]): 25 ± 8% | % Increase in P23H Yield (Table 1) (P23H opsin [2]): 24%

Oc1ccccc1C=Nn1cnnc1 [NSC 121968, 4-Salicylideneamino-1,2,4-triazol]
% Increase in P23H Yield (Table 2) (P23H opsin [2]): 29 ± 5%

O=C1NC(CCO)C(=O)NC1CCO (centres unmarked) [Compound 5, 3,6-bis-(2-hydroxyethy)-piperazine-2,5-dione]
% Increase in P23H Yield (Table 2) (P23H opsin [2]): 30 ± 10% | % Increase in P23H Yield (Table 1) (P23H opsin [2]): 15%

Cn1cc(C(N)=O)ccc1=N [NSC 66688, 6-imino-1-methyl-1,6-dihydro-3-pyridinecarboxamine]
% Increase in P23H Yield (Table 2) (P23H opsin [2]): 40 ± 9%

CC(C)N(CC#N)C(C)C [Compound 6, diisopropylaminoacetonitrile]
% Increase in P23H Yield (Table 2) (P23H opsin [2]): 25 ± 3% | % Increase in P23H Yield (Table 1) (P23H opsin [2]): 28%

CCCCCCCCCCCCCCCC(=O)OC/C=C(C)/C=C/C=C(C)/C=C/C1=C(C)CCCC1(C)C [vitamin A palmitate]
decrease in outer nuclear layer (ONL) thickness in treated animals (T17M (Class II) mice): 24% | decrease in the rate of decline in electroretinogram (ERG) a- and b-wave amplitudes (T17M (Class II) mice): 40-45% | changes in retinal degeneration on treatment (P347S (Class I) mice): no significant changes

CC(=O)/C=C/C1=C(C)CCCC1(C)C [β-ionone]
increase in yield of total opsin relative to no compound (P23H opsin [3]; P23H cells, β-ionone): 30% | inhibition of opsin regeneration (pigment formation with 11-cis-retinal), in words (WT opsin [1]): inhibited opsin regeneration in a dose dependent manner | pigment from P23H HEK cells treated with compound, purified without 11-cis-retinal treatment (P23H opsin [4]): No pigment was detected; also recorded: No pigment was observed; also recorded: No pigment was generated | increase in P23H pigment over control (P23H opsin [2]): 2.5 fold | formation of a 500 nm absorbing pigment with purified WT opsin (WT opsin [5]): does not form a light absorbing pigment; also recorded: did not form a 500 nm absorbing pigment; also recorded: no 500 nm absorbing pigment was formed

CC(=O)c1c(C)n[nH]c1C [Compound 1, 1-(3,5-dimethyl-1H-pyrazol-4-yl)ethanone]
inhibition of opsin regeneration (pigment formation with 11-cis-retinal), in words (WT opsin [1]; listed as SN10011): significant effect on inhibition of pigment formation; also recorded: inhibited | % Increase in P23H Yield (Table 2) (P23H opsin [2]): 30 ± 5% | increase in the yield of folded P23H rhodopsin (P23H opsin [2]): 30% | % Increase in P23H Yield (Table 1) (P23H opsin [2]): 31% | yield of folded P23H rhodopsin, in words (P23H opsin [2]): increased yield of folded rhodopsin | formation of a 500 nm absorbing pigment with purified WT opsin (WT opsin [5]; listed as SN10011): No pigment was formed; also recorded: No 500 nm absorbing pigment was generated

CC1=C(/C=C/C(C)=C/C=C/C(C)=C/C=O)C(C)(C)CCC1 [11-cis-retinal, reference compound]
increase in yield of total opsin (P23H opsin [3]; [6]): 2.4 fold | yield of folded rhodopsin (P23H opsin [3]; [6]): 2.6 fold | effectiveness of 11-cis-retinal relative to β-ionone in increasing cellular yields of P23H rhodopsin (P23H opsin [2]): about 2 fold | increase in P23H pigment over control (P23H opsin [2]): 5 fold

N#Cc1ccc2c(c1)OCO2 [NSC 27009, 3,4-Methylenedioxybenzonitrile]
% Increase in P23H Yield (Table 2) (P23H opsin [2]): 20 ± 5%

O=[PH](O)c1ccccc1 [Compound 3, phenyl-phosphinic acid]
% Increase in P23H Yield (Table 2) (P23H opsin [2]): 40 ± 3% | % Increase in P23H Yield (Table 1) (P23H opsin [2]): 32%
